From US20230083012A1, “DIHYDROPYRIMIDINE DERIVATIVES AND USES THEREOF IN THE TREATMENT OF HBV INFECTION OR OF HBV-INDUCED DISEASES” (priority 2019, published 2023)

Columns and labels:
HBV = experiment: Anti-HBV activity in HepG2.2.15 cells (HBV DNA in culture medium by qPCR); assay type: cell-based; conditions: Hepatitis B virus, HepG2.2.15, 144 h, HepG2.2.15 cells, 6 days treatment, HBV DNA in culture medium quantified by real-time PCR; read-out: EC50
Protocol: Example 2: Anti-Viral Assay in HepG2.2.15 Cells
(§1) HepG2.2.15 (the HepG2.2.15 cell line can be produced by transfection of the HepG2 cell line as described in Sells, Chen, and Acs 1987 (Proc. Natl. Acad. Sci. USA 84: 1005-1009), and the HepG2 cell line is available from ATCC® under number HIB-8065™)
(§2) HepG2.2.15 cells were plated into 96-well plate in 2% FBS culture medium at the density of 40,000 cells/well and 5,000 cells/well for HBV inhibitory activity and cytotoxicity determination, respectively. After incubation at 37° C., 5% CO2 overnight, cells were treated with medium containing compounds for 6 days with medium and compounds refreshed after 3 days of treatment. Each compound was tested in a 1:3 serial dilutions at 8 different concentrations in triplicate. The highest concentration of the compounds was 10 uM or 1 uM for anti-HBV activity assay and 100 uM for cytotoxicity determination.
The change of HBV DNA level induced by the compounds was assessed by quantitative real-time polymerase chain reaction (qPCR). Briefly, the HBV DNA in the culture medium was extracted using QIAamp 96 DNA Blood Kit according to the manual and then quantified by real-time PCR assay using the primers and probe in the table 2 below.
(§3) 2) DATA Analysis EC50 and CC50 values are calculated by the GRAPTIPAD PRISM software.

[1] = Cytotoxicity determination in HepG2.2.15 cells (CCK-8 cell viability); assay type: cell-based; conditions: human, 6 days treatment, CCK-8 assay, highest concentration 100 uM
Protocol: as §1, §2
Cell viability was determined by CCK-8 assay. After 6 days of compounds treatment, 20 μl CCK-8 reagents were added to each well of cytotoxicity assay plates. Cell plates were incubated at 37° C., 5% CO2 for 2.5 h. The absorbance at 450 nm wavelength and the absorbance at 630 nm wavelength as reference was measured.
as §3

With `CCOC(=O)C1=C(CN2CC(F)(F)[C@H]3[C@@H]2CCN3CC(C)(C)C(=O)O)NC(c2nccs2)=N[C@H]1c1cccc(F)c1C` (relative stereo) [Compound 1A, 3-(4-(((S)-5-(ethoxycarbonyl)-6-(3-fluoro-2-methylphenyl)-2-(thiazol-2-yl)-3,6-dihydropyrimidin-4-yl)methyl)-6,6-difluorohexahydropyrrolo[3,2-b]pyrrol-1(2H)-yl)-2,2-dimethylpropanoic acid] the EC50 (HBV) was 1.3 nM and the CC50 at 6 days [1] was 15 µM.
In the case of `CCOC(=O)C1=C(CN2CC[C@]3(F)C(=O)N(CC(C)(C)C(=O)O)C[C@H]23)NC(c2nccs2)=N[C@H]1c1cccc(F)c1C` (relative stereo) [Compound 3B, 3-(1-(((S)-5-(ethoxycarbonyl)-6-(3-fluoro-2-methylphenyl)-2-(thiazol-2-yl)-3,6-dihydropyrimidin-4-yl)methyl)-3a-fluoro-4-oxohexahydropyrrolo[3,4-b]pyrrol-5(1H)-yl)-2,2-dimethylpropanoic acid], the EC50 (HBV) is reported as 38.7 nM and the CC50 at 6 days [1] is reported as 51.8 µM.
In the case of `CCOC(=O)C1=C(CN2CC[C@H]3C(=O)N(CC(C)(C)C(=O)O)C(=O)[C@H]32)NC(c2nccs2)=N[C@H]1c1cccc(F)c1C` (relative stereo) [Compound 4A, 3-(1-(((S)-5-(ethoxycarbonyl)-6-(3-fluoro-2-methylphenyl)-2-(thiazol-2-yl)-3,6-dihydropyrimidin-4-yl)methyl)-4,6-dioxohexahydropyrrolo[3,4-b]pyrrol-5(1H)-yl)-2,2-dimethylpropanoic acid], the EC50 (HBV) is reported as 6.3 nM and the CC50 at 6 days [1] is reported as 32.6 µM.
`CCOC(=O)C1=C(CN2CC(F)(F)[C@@H]3C(=O)N(CC(C)(C)C(=O)O)C[C@@H]32)NC(c2nccs2)=N[C@H]1c1cccc(F)c1C` (relative stereo) [Compound 5A, 3-(1-(((S)-5-(ethoxycarbonyl)-6-(3-fluoro-2-methylphenyl)-2-(thiazol-2-yl)-3,6-dihydropyrimidin-4-yl)methyl)-3,3-difluoro-4-oxohexahydropyrrolo[3,4-b]pyrrol-5(1H)-yl)-2,2-dimethylpropanoic acid] gave an EC50 (HBV) of 8.2 nM and a CC50 at 6 days [1] of 70.4 µM.
`CCOC(=O)C1=C(CN2CC(F)(F)[C@H]3[C@@H]2CCN3CC2(C(=O)O)CC2)NC(c2nccs2)=N[C@H]1c1cccc(F)c1C` (relative stereo) [Compound 38A, 1-((4-(((S)-5-(ethoxycarbonyl)-6-(3-fluoro-2-methylphenyl)-2-(thiazol-2-yl)-3,6-dihydropyrimidin-4-yl)methyl)-6,6-difluorohexahydropyrrolo[3,2-b]pyrrol-1(2H)-yl)methyl)cyclopropane-1-carboxylic acid] showed an EC50 (HBV) of 1.5 nM and a CC50 at 6 days [1] of 20 µM.
`CCOC(=O)C1=C(CN2CC(F)(F)[C@H]3[C@@H]2CCN3C2CC(C(=O)O)C2)NC(c2nccs2)=N[C@H]1c1cccc(F)c1C` (relative stereo) [Compound 39A, 3-(4-(((S)-5-(ethoxycarbonyl)-6-(3-fluoro-2-methylphenyl)-2-(thiazol-2-yl)-3,6-dihydropyrimidin-4-yl)methyl)-6,6-difluorohexahydropyrrolo[3,2-b]pyrrol-1(2H)-yl)cyclobutane-1-carboxylic acid] showed an EC50 (HBV) of 2.4 nM and a CC50 at 6 days [1] of 35 µM.
For `CCOC(=O)C1=C(CN2CC(F)(F)[C@H]3[C@@H]2CCN3CC2(CC(=O)O)CC2)NC(c2nccs2)=N[C@H]1c1cccc(F)c1C` (relative stereo) [Compound 49, 2-(1-((4-(((S)-5-(ethoxycarbonyl)-6-(3-fluoro-2-methylphenyl)-2-(thiazol-2-yl)-3,6-dihydropyrimidin-4-yl)methyl)-6,6-difluorohexahydropyrrolo[3,2-b]pyrrol-1(2H)-yl)methyl)cyclopropyl)-acetic acid], the EC50 (HBV) was 32.6 nM and the CC50 at 6 days [1] was 25.5 µM.
`CCOC(=O)C1=C(CN2CC(F)(F)[C@@H]3[C@H]2CN(C)N3CCC(C)(C)C(=O)O)NC(c2nccs2)=N[C@H]1c1cccc(F)c1C` (relative stereo) [Compound 68A, 4-(4-(((S)-5-(ethoxycarbonyl)-6-(3-fluoro-2-methylphenyl)-2-(thiazol-2-yl)-3,6-dihydropyrimidin-4-yl)methyl)-6,6-difluoro-2-methylhexahydropyrrolo[3,2-c]pyrazol-1(2H)-yl)-2,2-dimethylbutanoic acid] gave an EC50 (HBV) of 7.4 nM and a CC50 at 6 days [1] of 22.2 µM.
In the case of `CCOC(=O)C1=C(CN2CC(F)(F)[C@@H]3[C@H]2CON3CCC(C)(C)C(=O)O)NC(c2nccs2)=N[C@H]1c1cccc(F)c1C` (relative stereo) [Compound 69A, 4-(4-(((S)-5-(ethoxycarbonyl)-6-(3-fluoro-2-methylphenyl)-2-(thiazol-2-yl)-3,6-dihydropyrimidin-4-yl)methyl)-6,6-difluorohexahydro-1H-pyrrolo[3,2-c]isoxazol-1-yl)-2,2-dimethylbutanoic acid], the EC50 (HBV) is reported as 0.7 nM and the CC50 at 6 days [1] is reported as 37 µM.
`CCOC(=O)C1=C(CN2CC(F)(F)[C@H]3[C@@H]2CN(CC(C)(C)C(=O)O)N3C)NC(c2nccs2)=N[C@H]1c1cccc(F)c1C` (relative stereo) [Compound 87, 3-((cis)-4-(((S)-5-(ethoxycarbonyl)-6-(3-fluoro-2-methylphenyl)-2-(thiazol-2-yl)-3,6-dihydropyrimidin-4-yl)methyl)-6,6-difluoro-1-methylhexahydropyrrolo[3,2-c]pyrazol-2(1H)-yl)-2,2-dimethylpropanoic acid] showed an EC50 (HBV) of 14 nM and a CC50 at 6 days [1] of over 50 µM.
`CCOC(=O)C1=C(CN2CC(F)(F)[C@H]3[C@@H]2CCN3CCC(C)(C)C(=O)O)NC(c2ncoc2C)=N[C@@H]1c1cccc(F)c1C` (relative stereo) [Compound 107, 4-(4-((5-(ethoxycarbonyl)-6-(3-fluoro-2-methylphenyl)-2-(5-methyloxazol-4-yl)-3,6-dihydropyrimidin-4-yl)methyl)-6,6-difluorohexahydropyrrolo[3,2-b]pyrrol-1(2H)-yl)-2,2-dimethylbutanoic acid] gave an EC50 (HBV) of 11.3 nM and a CC50 at 6 days [1] of 42.5 µM.
Work on `CCOC(=O)C1=C(CN2CC(F)(F)[C@H]3[C@@H]2CCN3CC[C@H]2C[C@@H]2C(=O)O)NC(c2nccs2)=N[C@H]1c1cccc(F)c1C` (relative stereo) [Compound 110, (trans)-2-(2-((cis)-4-(((S)-5-(ethoxycarbonyl)-6-(3-fluoro-2-methylphenyl)-2-(thiazol-2-yl)-3,6-dihydropyrimidin-4-yl)methyl)-6,6-difluorohexahydropyrrolo[3,2-b]pyrrol-1(2H)-yl)ethyl)cyclopropane-1-carboxylic acid] yielded an EC50 (HBV) of 0.6 nM and a CC50 at 6 days [1] of 23.5 µM.
Work on `CCOC(=O)C1=C(CN2CC(F)(F)[C@H]3[C@@H]2CCN3CCC(C)(C)C(=O)O)NC(c2nccs2)=N[C@@H]1c1ccc(F)nc1C` (relative stereo) [Compound 121, 4-((cis)-4-(((R)-5-(ethoxycarbonyl)-6-(6-fluoro-2-methylpyridin-3-yl)-2-(thiazol-2-yl)-3,6-dihydropyrimidin-4-yl)methyl)-6,6-difluorohexahydropyrrolo[3,2-b]pyrrol-1(2H)-yl)-2,2-dimethylbutanoic acid] yielded an EC50 (HBV) of 8.7 nM and a CC50 at 6 days [1] of over 100 µM.
With `CCOC(=O)C1=C(CN2CC(F)(F)[C@@H]3[C@H]2CCN3CC(=O)O)NC(c2nccs2)=N[C@H]1c1cccc(F)c1C` (single isomer, unassigned) [Compound 6A] the EC50 (HBV) was 3.6 nM and the CC50 at 6 days [1] was 30.4 µM.
`CCOC(=O)C1=C(CN2CC(F)(F)[C@H]3[C@@H]2CCN3CC(=O)O)NC(c2nccs2)=N[C@H]1c1cccc(F)c1C` (single isomer, unassigned) [Compound 6B] gave an EC50 (HBV) of 382 nM and a CC50 at 6 days [1] of 34.7 µM.
`CCOC(=O)C1=C(CN2CC(F)(F)[C@H]3[C@@H]2CCN3CC(=O)NS(C)(=O)=O)NC(c2nccs2)=N[C@H]1c1cccc(F)c1C` (single isomer, unassigned) [Compound 8A] showed an EC50 (HBV) of 6.9 nM and a CC50 at 6 days [1] of 36.3 µM.
`CCOC(=O)C1=C(CN2CC(F)(F)[C@@H]3CN(C(=O)C(C)(C)C(=O)O)C[C@@H]32)NC(c2nccs2)=N[C@H]1c1cccc(F)c1C` (single isomer, unassigned) [Compound 9A] gave an EC50 (HBV) of 11.1 nM and a CC50 at 6 days [1] of 57.8 µM.
With `CCOC(=O)C1=C(CN2CC(F)(F)[C@@H]3CN(C(=O)C4(C(=O)O)CC4)C[C@@H]32)NC(c2nccs2)=N[C@H]1c1cccc(F)c1C` (single isomer, unassigned) [Compound 10] the EC50 (HBV) was 80.5 nM and the CC50 at 6 days [1] was 69.6 µM.
`CCOC(=O)C1=C(CN2C[C@H](F)[C@H]3[C@@H]2CCN3CC(C)(C)C(=O)O)NC(c2nccs2)=N[C@H]1c1cccc(F)c1C` (single isomer, unassigned) [Compound 11B] showed an EC50 (HBV) of 31.4 nM and a CC50 at 6 days [1] of 30 µM.
`CCOC(=O)C1=C(CN2CC(F)(F)[C@@H]3CN(CC(C)(C)C(=O)O)C[C@@H]32)NC(c2nccs2)=N[C@H]1c1cccc(F)c1C` (single isomer, unassigned) [Compound 12B] showed an EC50 (HBV) of 8.2 nM and a CC50 at 6 days [1] of 86.1 µM.
Work on `CCOC(=O)C1=C(CN2CC(F)(F)[C@@H]3CN(CC(C)(C)C(=O)O)C(=O)[C@@H]32)NC(c2nccs2)=N[C@H]1c1cccc(F)c1C` (single isomer, unassigned) [Compound 13B] yielded an EC50 (HBV) of 3.5 nM and a CC50 at 6 days [1] of 38.6 µM.
